Experimental data published in the RepoRT retention time repository.
Counter-ions that a name gives are not always drawn.

Test: RP, Restek Raptor Biphenyl, 100 × 2.1 mm, 2.7 µm, 50 °C, 0.4 mL/min, estimated dead time 0.55 min; A: water + 0.1% formic acid, pH 3; B: methanol + 0.1% formic acid, pH 3; gradient (min/%B) 0/5 1.12/5 6.41/99.5 10.01/99.5
Details: stereoisomer not certain

LC retention time [min]	Structure (SMILES)
3.77	CSc1ncnc2nc[nH]c12 [THIOPURINE S-METHYLETHER]
5.15	CCCCCCCCCC(O)CC(=O)OC(CC(=O)[O-])C[N+](C)(C)C [[(3R)-3-Hydroxydodecanoyl]-L-carnitine]
4.66	O=C(O)CCc1c[nH]c2ccccc12 [Indole-3-propionic acid]
3.54	Cn1c(=O)[nH]c2ncn(C)c2c1=O [PARAXANTHINE]
4.45	Cc1cc2nc3c(=O)[nH]c(=O)nc-3n(CC(O)C(O)C(O)CO)c2cc1C (stereo not given) [RIBOFLAVIN]
6.56	CCC=CCC=CCC=CCC=CC/C=C\CCCC(=O)O [cis-5,8,11,14,17-Eicosapentaenoic acid]
6.93	C[C@H](CCC(=O)O)[C@H]1CC[C@H]2[C@@H]3CC[C@@H]4CC(=O)CC[C@]4(C)[C@H]3CC[C@]12C [3-Oxo-5β-cholanoic Acid]
4.71	O=C(O)C=Cc1c[nH]c2ccccc12 [3-Indoleacrylic acid]
3.04	CSCCC(NC(C)=O)C(=O)O (stereo not given) [N-ACETYLMETHIONINE]
6.67	CC(C)CCCCCCCCCCCCCCC(=O)O [Isostearic acid]
0.746	NC(=O)c1ccc[n+](C2OC(COP(=O)([O-])OP(=O)(O)OCC3OC(n4cnc5c(N)ncnc54)C(OP(=O)(O)O)C3O)C(O)C2O)c1 (stereo not given) [NADP]
5.61	CCCCCCCCCCC[n+]1cccc(S(=O)(=O)[O-])c1 [C11-APS]
5.79	CCCCCCCCCCCC[n+]1cccc(S(=O)(=O)[O-])c1 [C12-APS]
3.3	O=c1cccc(O)[nH]1 [2,6-DIHYDROXYPYRIDINE]
1.15	Nc1nc2c(ncn2C2OC(CO)C(O)C2O)c(=O)[nH]1 (stereo not given) [GUANOSINE]
6.37	CC(CCC(=O)NCC(=O)O)C1CCC2C3CCC4CC(O)CCC4(C)C3CCC12C (stereo not given) [Glycolithocholic acid]
3.04	COc1cc(CC(O)C(=O)O)ccc1O (racemic) [DL-Vanillactic acid lithium salt hydrate]
6.21	CC12CCC(=O)C=C1CCC1C2C(O)CC2(C)C(C(=O)CO)CCC12 (stereo not given) [Corticosterone]
2.18	Cc1cn(C2CC(O)C(CO)O2)c(=O)[nH]c1=O (stereo not given) [THYMIDINE]
6.24	CC(CC(=O)O)C1CCC2C3CCC4CC(O)CCC4(C)C3CC(O)C12C (stereo not given) [Nor-Desoxycholic Acid]
1.47	O=C(O)Cc1cc(O)ccc1O [HOMOGENTISATE]
0.676	O=C(O)CC(O)C(=O)O (stereo not given) [MALATE]
2.67	CCCC[n+]1cccc(S(=O)(=O)[O-])c1 [C4-APS]
7.08	CCCCCCCCCCCCCCCCCCCCCCCCCCCC(=O)O [Octacosanoic acid]

LC retention time [min]	Structure (SMILES)
1.8	Cc1ncc(CO)c(C(=O)O)c1O [4-PYRIDOXATE]
6.09	CCCCCCCCCCCCC(O)C(=O)O (stereo not given) [2-Hydroxytetradecanoic acid]
1.47	O=c1[nH]c(=O)c2ncn(C3OC(CO)C(O)C3O)c2[nH]1 (stereo not given) [XANTHOSINE]
0.774	O=c1[nH]c(=O)c2[nH]c(=O)[nH]c2[nH]1 [URATE]
5.9	CCC(Oc1ccc(F)c(C(F)(F)F)c1)C(=O)NCc1ccccc1 (stereo not given) [Beflubutamid]
6.47	CC(CCC(=O)NCCS(=O)(=O)O)C1CCC2C3CCC4CC(O)CCC4(C)C3CCC12C (stereo not given) [Taurolithocholic acid]
6.63	CCCCCCCCCCCC=CCCCCC(=O)O [PETROSELINATE]
2.83	CCC(C)C(=O)NCC(=O)O (stereo not given) [N-(2-Methylbutyryl)glycine]
2.52	O=S(=O)(O)Oc1c[nH]c2ccccc12 [INDOXYL SULFATE]
3.46	O=C1O[C@H]([C@@H](O)CO)C(O)=C1O [L-Ascorbic acid]
3.75	NC(=O)Cc1c[nH]c2ccccc12 [INDOLE-3-ACETAMIDE]
4.21	CC1NC(=O)NC1CCCCCC(=O)O (stereo not given) [DETHIOBIOTIN]
0.822	O=C(O)C(O)c1ccc(O)c(O)c1 (stereo not given) [3,4 DIHYDROXYMANDELATE]
4.97	O=C(O)CCCc1c[nH]c2ccccc12 [Indole-3-butyric acid]
0.909	O=C(O)CCC(=O)O [Succinic acid]
0.695	O=c1ccn(C2CC(O)C(COP(=O)(O)O)O2)c(=O)[nH]1 (stereo not given) [DEOXYURIDINE-MONOPHOSPHATE]
1.03	O=C(O)CCCC(O)C(=O)O (racemic) [Disodium (2RS)-2-hydroxyadipate]
6.53	CCC=CCC=CCC=CCCCCCCCC(=O)O [Linolenic acid]
5.49	CC12CCC(=O)C=C1CCC1C2C(O)CC2(C)C1CCC2(O)C(=O)CO (stereo not given) [CORTISOL]
0.695	O=c1[nH]c(=O)c2ncn(C3OC(COP(=O)(O)O)C(O)C3O)c2[nH]1 (stereo not given) [XANTHOSINE-MONOPHOSPHATE]
2.43	CC(CC(=O)O)CC(=O)O [3-Methylglutaric acid]
0.718	O=C(O)C=Cc1cnc[nH]1 [4-Imidazoleacrylic acid]
5.46	CCCCCCCCCCCC(=O)OC(CC(=O)[O-])C[N+](C)(C)C [Lauroyl-L-carnitine]

Continued, compound first:

Structure (SMILES)	LC retention time [min]
CCCCCCCCCCCCCCCCCC[n+]1cccc(S(=O)(=O)[O-])c1 [C18-APS]	6.52
CNC(=N[N+](=O)[O-])NCC1CCOC1 (stereo not given) [Dinotefuran]	3.16
N#Cc1nn(-c2c(Cl)cc(C(F)(F)F)cc2Cl)c(N)c1S(=O)C(F)(F)F (stereo not given) [Fipronil]	5.6
CCCCCCCCCCCCCC(O)CC(=O)OC(CC(=O)[O-])C[N+](C)(C)C [[(3R)-3-Hydroxyhexadecanoyl]-L-carnitine]	5.77
CNC(=O)c1cc(Cl)cc(C)c1NC(=O)c1cc(Br)nn1-c1ncccc1Cl [Chlorantraniliprole]	5.84
O=C1CCCCO1 [5-VALEROLACTONE]	2.44
OC(c1ccc(Cl)cc1)(c1cncnc1)c1ccccc1Cl (stereo not given) [Fenarimol]	6.02
CCc1ccc(C(=O)NN(C(=O)c2cc(C)cc(C)c2)C(C)(C)C)cc1 [Tebufenozide]	6.04
CCCCCC=CCC=CCC=CCC=CCC=CCCC(=O)O [all-cis-4,7,10,13,16-Docosapentaenoic acid]	6.7
CC(C)(C)N(NC(=O)c1ccc(Cl)cc1)C(=O)c1ccccc1 [Halofenozide]	5.6
CCCCCCCCCCCCCCCCCCCCCCCCC(=O)O [Pentacosanoic Acid]	6.98
CSCC1OC(n2cnc3c(N)ncnc32)C(O)C1O (stereo not given) [METHYLTHIOADENOSINE]	3.18
O=C(O)c1cccnc1C(=O)O [QUINOLINATE]	1
O=C(O)CCCCCCCCC(=O)O [SEBACATE]	4.87
CC(=O)NC(CC(C)C)C(=O)O (stereo not given) [N-ACETYLLEUCINE]	3.63
CC(CCC(=O)O)C1CCC2C3C(OS(=O)(=O)O)CC4CC(O)CCC4(C)C3CC(O)C12C (stereo not given) [Cholic acid 7-sulfate]	5.85
O=c1[nH]c2c(c(=O)n1C1CCCCC1)CCC2 [Lenacil]	5.48
CN(C)C(=O)Nc1cccc(C(F)(F)F)c1 [Fluometuron]	4.92
O=C(O)CCCCC(O)CC(=O)O (stereo not given) [3-Hydroxysuberic Acid]	2.74
COc1cc(C(O)C(=O)O)ccc1O (racemic) [DL-4-Hydroxy-3-methoxymandelic acid]	1.73
CCCC(C(=O)O)C(O)C(=O)O (stereo not given) [3-Propylmalic acid]	2.81
CC(C)C1CCC(Cc2ccc(Cl)cc2)C1(O)Cn1cncn1 (stereo not given) [Ipconazole]	6.21

Structure (SMILES)	LC retention time [min]
O=C(O)c1ccc(C(=O)O)o1 [2,5-Furandicarboxylic acid]	1.51
CC(=O)NC(Cc1c[nH]c2ccccc12)C(=O)O (stereo not given) [N-ACETYLTRYPTOPHAN]	4.12
CC1(c2ccc(Oc3ccccc3)cc2)OC(=O)N(Nc2ccccc2)C1=O (stereo not given) [Famoxadone]	6.68
CC(=O)NC(Cc1ccccc1)C(=O)O (stereo not given) [N-ACETYLPHENYLALANINE]	4.06
CC(C)C(=O)C(=O)O [α-Keto Isovaleric Acid Sodium Salt]	1.26
CCCCCCCCC=CCCCCCCCCCCCCCC(=O)O [Nervonic acid]	6.93
CC(C)CCCCCCCCCCCCCCCC(=O)O [17-Methylstearic acid]	6.7
O=C(O)C(O)Cc1c[nH]c2ccccc12 (racemic) [DL-Indole-3-lactic acid]	3.91
O=C(O)CCCC(=O)C(=O)O [2-Oxoadipic acid]	0.793
O=C(O)CC(O)(CC(=O)O)C(=O)O [Citric acid]	0.743
O=C(O)c1c[nH]c2ccccc12 [Indole-3-carboxylic acid]	4.08
Nc1ncnc2c1ncn2C1CC(O)C(COP(=O)(O)O)O1 (stereo not given) [DEOXYADENOSINE MONOPHOSPHATE]	0.818
CCCCCCCCCCCCCCCC(=O)O [Palmitic acid]	6.54
O=Cc1ccccc1 [BENZALDEHYDE]	2.98
CC(C)(C)C(O)C(=Cc1ccc(Cl)cc1Cl)n1cncn1 (stereo not given) [Diniconazole]	6.05
CC(C)CCCC(C)CCCC(C)CCCC(C)CC(=O)O (stereo not given) [Phytanic acid]	6.68
CCCCCCCCCCCCC[n+]1cccc(S(=O)(=O)[O-])c1 [C13-APS]	5.95
O=C(O)c1ccc[nH]1 [PYRROLE-2-CARBOXYLATE]	3.3
CC1=C(C(=O)Nc2ccccc2)SCCO1 [Carboxin]	5.79
CCCCCCC[n+]1cccc(S(=O)(=O)[O-])c1 [C7-APS]	4.41
CC(C)C(O)(CC(=O)O)C(=O)O (stereo not given) [2-Isopropylmalic acid]	2.76
